The values below come from ChEMBL document CHEMBL4373746, “Structural attributes influencing unbound tissue distribution” (Eur J Med Chem, 2020).

The structures appear in SMILES notation.

Data set [1] can be described thus: Fraction unbound in Wistar Han rat plasma at 2 uM incubated for 6 hrs by equilibrium dialysis method.
Data set [2] is described as follows: Fraction unbound in Wistar Han rat white adipose tissue at 2 uM incubated for 6 hrs by equilibrium dialysis method. For orientation: In equilibrium dialysis free small molecules cross a membrane that holds back macromolecules.
A short description of data set [3]: Fraction unbound in Wistar Han rat brain at 2 uM incubated for 6 hrs by equilibrium dialysis method.
Data set [4] can be described thus: Fraction unbound in Wistar Han rat heart at 2 uM incubated for 6 hrs by equilibrium dialysis method.
Data set [5] in a line: Fraction unbound in Wistar Han rat liver at 2 uM incubated for 6 hrs by equilibrium dialysis method.
A short description of data set [6]: Fraction unbound in Wistar Han rat skeletal muscle at 2 uM incubated for 6 hrs by equilibrium dialysis method.
Data set [7] is described as follows: Total plasma concentration in Wistar Han rat at 1 to 2 mg/kg, iv infused for 10 to 20 hrs by LC-MS/MS analysis. To be noted: in vivo.
The nature of data set [8]: Drug concentration in total white adipose tissue in Wistar Han rat at 1 to 2 mg/kg, iv infused for 10 to 20 hrs by LC-MS/MS analysis. To be noted: in vivo.
The nature of data set [9]: Drug concentration in total brain in Wistar Han rat at 1 to 2 mg/kg, iv infused for 10 to 20 hrs by LC-MS/MS analysis. To be noted: in vivo.
A short description of data set [10]: Drug concentration in total heart in Wistar Han rat at 1 to 2 mg/kg, iv infused for 10 to 20 hrs by LC-MS/MS analysis. Conditions: in vivo.
A short description of data set [11]: Drug concentration in total liver in Wistar Han rat at 1 to 2 mg/kg, iv infused for 10 to 20 hrs by LC-MS/MS analysis. To be noted: in vivo.
Data set [12] in a line: Drug concentration in total skeletal muscle in Wistar Han rat at 1 to 2 mg/kg, iv infused for 10 to 20 hrs by LC-MS/MS analysis. Conditions: in vivo.
The nature of data set [13]: Unbound tissue partition coefficient, ratio of drug level in heart to plasma in Wistar Han rat at 1 to 2 mg/kg, iv infused for 10 to 20 hrs by LC-MS/MS analysis.
A short description of data set [14]: Unbound tissue partition coefficient, ratio of drug level in brain to plasma in Wistar Han rat at 1 to 2 mg/kg, iv infused for 10 to 20 hrs by LC-MS/MS analysis.
The nature of data set [15]: Unbound tissue partition coefficient, ratio of drug level in adipose to plasma in Wistar Han rat at 1 to 2 mg/kg, iv infused for 10 to 20 hrs by LC-MS/MS analysis.
A short description of data set [16]: Unbound tissue partition coefficient, ratio of drug level in liver to plasma in Wistar Han rat at 1 to 2 mg/kg, iv infused for 10 to 20 hrs by LC-MS/MS analysis.
Data set [17] can be described thus: Unbound tissue partition coefficient, ratio of drug level in skeletal muscle to plasma in Wistar Han rat at 1 to 2 mg/kg, iv infused for 10 to 20 hrs by LC-MS/MS analysis.
The nature of data set [18]: Unbound tissue partition coefficient, ratio of drug level in brain to plasma in mouse administered as single dose. The format is ADME. Conditions: read-out: K(p,uu,brain).
Data set [19] is described as follows: Apparent permeability of the compound across dog RRCK cells by MDCK-LE assay.

For orientation: fraction unbound means free concentration divided by total concentration. A higher fraction unbound goes with much free substance. One may read the Papp as a coefficient for how fast a substance crosses the barrier.

For `CN1CC[C@H](c2c(O)cc(O)c3c(=O)cc(-c4ccccc4Cl)oc23)[C@H](O)C1` [ALVOCIDIB], the fraction unbound at 6 h, 2 µM in data set [1] was determined as 0.147; in [2], 1; in [3], 0.0442; in [4], 0.0624; in data set [5], 0.021; in data set [6] it was 0.033. The compound also registered a Cp in [7] of 14 ng/mL. Besides, the Ct in data set [8] came out at 5.6 ng/mL; in [9] it was 2.9 ng/mL; in data set [10], 56 ng/mL; in [11], 32 ng/mL; in [12] it was 52 ng/mL. The Kp uu stood at 1.7 in [13] (heart/plasma); 0.06 in data set [14] (brain/plasma); 2.7 in data set [15] (adipose/plasma); 0.33 in data set [16] (liver/plasma); 0.86 in [17] (skeletal muscle/plasma); 0.065 in [18]. In addition, the Papp in data set [19] was 22 ×10⁻⁶ cm/s.
`CN(C)C(=O)C(CCN1CCC(O)(c2ccc(Cl)cc2)CC1)(c1ccccc1)c1ccccc1` [LOPERAMIDE]: the fraction unbound at 6 h, 2 µM in [1] came to 0.0462; in data set [2] it was 0.00264; in data set [3] it was 0.00591; in data set [4], 0.00677; in data set [5], 0.000644; in data set [6], 0.0022. Also, the Cp in [7] worked out at 74 ng/mL. The Ct in [8] amounted to 130 ng/mL; in data set [9], 1.3 ng/mL; in [10], 390 ng/mL; in data set [11], 590 ng/mL; in data set [12], 170 ng/mL. Besides, the Kp uu in data set [13] (heart/plasma) worked out at 0.79; in data set [14] (brain/plasma), 0.002; in data set [15] (adipose/plasma), 0.1; in [16] (liver/plasma) it was 0.11; in data set [17] (skeletal muscle/plasma), 0.11; in data set [18], 0.059. In data set [19], the Papp amounted to 2.7 ×10⁻⁶ cm/s.
In data set [7] (Wistar Han), `CC(C)c1nc(CN(C)C(=O)N[C@H](C(=O)N[C@@H](Cc2ccccc2)C[C@H](O)[C@H](Cc2ccccc2)NC(=O)OCc2cncs2)C(C)C)cs1` [RITONAVIR] had a Cp of 27 ng/mL. Moreover, the Ct in data set [8] (Wistar Han) was 31 ng/mL; in data set [9] (Wistar Han), 0.38 ng/mL; in [10] (Wistar Han), 170 ng/mL; in data set [11] (Wistar Han) it was 370 ng/mL; in data set [12] (Wistar Han), 42 ng/mL. The Kp uu was 9.6 in data set [13] (other tissue); 0.0018 in data set [14] (brain); 9.6 in [15] (other tissue); 1.2 in [16] (other tissue); 0.56 in data set [17] (other tissue); 0.019 in data set [18]. Moreover, in data set [19], the Papp amounted to 9.9 ×10⁻⁶ cm/s.
